For data set [1], the system named is nahR/Psal::xylS2 cascade circuit with Pm::trp′::′lacZ in SL7207 4S2. It counts as cell-based, Salmonella typhimurium.
The test system of data set [2] is XylS2. Conditions: XylS2 mutant regulator; cited from earlier work.
The subject of data set [3] is nahR/Psal with xylS2/Pm downstream. Conditions: cited from earlier work.
Data set [4] concerns SL7207 4S2. The data set is described as follows: growth inhibition of the bacterial cultures at high inducer concentration. The conditions noted are these: high concentrations (5 mM).
For data set [5], the system named is SL7207 4S2 pWSK-/pCAS-trp′::′lacZ infecting HeLa cells. It counts as cell-based.
Data set [6] concerns the target MarR (Escherichia coli, UniProt P27245). The conditions noted are these: cited from earlier work.
The conditions of data set [7]: in vivo; cited from earlier work.

pKd: −log10 of the molar value. Entries after “also recorded” stand apart in the source; their conditions may differ.

MarR, sequence (P27245 whole entry): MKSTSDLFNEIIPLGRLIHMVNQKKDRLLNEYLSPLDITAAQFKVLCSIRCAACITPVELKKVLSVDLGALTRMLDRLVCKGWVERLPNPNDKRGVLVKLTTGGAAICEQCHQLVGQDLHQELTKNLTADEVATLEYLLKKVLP

In the case of `CC(=O)Oc1ccccc1C(=O)O` [acetylsalicylic acid], the “induction of the system, salicylate compared with acetylsalicylic acid” value in data set [1] is “induced the system similarly”. The induction of expression in data set [2] is recorded as 10 fold. The “induction reached with regulation cascade system” value in data set [3] is recorded as 1,000 fold. Moreover, the growth inhibition result in data set [4] is on record as “growth inhibition was evident”. In addition, in data set [5], the “β-galactosidase expression in bacteria infecting HeLa cells” value is given as “induce similar levels of β-galactosidase; also recorded: activate the signal cascade to similar levels”.
For the molecule `O=C(O)c1ccccc1O` [salicylate], in data set [6], the pKd (usually the negative decadic logarithm of the Kd, by convention in mol/L) is 3.30. Further, the half-life (usually the time in which the quantity being followed falls by half) in data set [7] is 2 to 4 h.

The values are drawn from patent US20070264702A1 (priority 2003, published 2007).
